Measured values from patent publication US20230027198A1 (The Rockefeller University, priority 2019, published 2023).

Experiments:
[1] = molecular target: T1, ENL YEATS domain (6×HIS ENL YEATS Domain) binding to H3K9cr peptide (Homo sapiens, UniProt Q03111); assay: TR-FRET ENL Screening Assay, FRET Assay Protocol 1; conditions: H3K9cr peptide (aa1-20)
T1 construct: aa1-150; EpiCypher, 15-0069; purchased EpiCypher 15-0069
T1 sequence (Q03111 1-150): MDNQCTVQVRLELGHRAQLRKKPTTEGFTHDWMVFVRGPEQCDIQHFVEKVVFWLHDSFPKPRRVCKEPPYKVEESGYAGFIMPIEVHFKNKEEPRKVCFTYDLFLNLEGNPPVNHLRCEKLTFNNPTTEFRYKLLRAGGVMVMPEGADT
Procedure: Compounds of the invention were dissolved in DMSO at a concentration of 3 mM with subsequent dilutions in assay buffer (50 mM HEPES PH7.0, 150 mM NaCl, 0.05% BSA, 0.2% Pluronic F-127) such that the assay contained 1% DMSO. […] Low control (LC) wells received 5 uL of assay buffer instead of ENL protein. […] Compound concentration response curves were performed in duplicate over the concentration range of 0.15 nM-30 uM. The response at each compound concentration minus the LC value was converted to percent inhibition of the vehicle control group response (HC-LC). The relationship between the % inhibition and the compound concentration was analyzed using a four parameter logistic equation to estimate lower and upper asymptotes, the compound concentration producing 50% inhibition (IC50 value) and the slope at the mid-point location.

[2] = system: MV4-11 cells; assay: Cell viability assay (CellTiter-Glo), 12 days; assay type: cell-based; conditions: Homo sapiens, readouts on days 4, 8 and 12, day not given
Procedure: Cell-based assays were used to assess the ability of test compounds to reduce cell viability in both MV4:11 (MLL-AF4 MLL) and K562 cells, which were cultured in Iscove's Modified Dulbecco's medium (Gibco, 12440061) containing […]. The assays were conducted over 12 days and the cells being split on days 4 and 8. Compound concentration response curves were performed in duplicate over the concentration range of 0.15 nM-30 uM. On day 0, the compounds or vehicle were plated in a 300 nL directly into 96 well cell culture plates (Corning, 3599) with 5000 cells/well in a volume of 100 uL. Blank wells received cell culture medium. Plates were incubated for 4 days at 37° C. with 5% CO2. On days 4 and day 8 the cells were split and incubated for a further 4 days whilst an aliquot of cells were taken for the CTG readout. For the cell splitting, 270 nL of compounds or DMSO was added to a new 96 well cell culture plate to which 90 uL of medium plus 10 uL of cells from the original assay plate (after mixing) or 100 uL of medium (Blank wells) was added. This was repeated on day 8.
Cell viability was assessed using the CellTiter-Glo® homogeneous luminescent assay kit (Promega, G9243), according to the manufacturer's instructions. This quantifies ATP, which indicates the presence of metabolically active cells. On days 4, 8 and 12, 20 ul of the remaining cell suspension was aspirated into 384-well plate (Corning 3570) to which an equal volume CellTiter-Glo reagent was. Plates were incubated for 10 minute incubation at RT prior to recording the luminescence signal using EnVision plate reader (PE, 2104). The resulting data were analyzed as follows:
Inhibition (%)=100%×(Lumvehicie−Lumsample)/(Lumvehicle−Lumblank)
where vehicle are cells treated with 0.3% DMSO, Blank is culture medium. IC50 determinations were calculated by fitting the curve using XLfit (v5.3.1.3): Y=Bottom+(Top−Bottom)/(1+10^((Log IC50−X)*HillSlope)).

Structure (SMILES) | IC50 [1] [nM] | IC50 [2] [µM]
Cc1nn(C)c2cc(C(=O)Nc3cc4[nH]c(CN5CCC[C@@H]5C)cc4cn3)ccc12 [Example 5] | 125 | 0.022
C[C@H]1CCCN1Cc1cc2cnc(NC(=O)c3ccc4cc(=O)[nH]cc4c3)cc2[nH]1 [Example 23, N-(2-[[(2S)-2-methylpyrrolidin-1-yl]methyl]-1H-pyrrolo[3,2-c]pyridin-6-yl)-3-oxo-2H-isoquinoline-7-carboxamide] | 208 | 0.076
C[C@H]1CCCN1Cc1cc2cnc(NC(=O)c3ccc4oc(=O)[nH]c4c3)cc2[nH]1 [Example 24, N-(2-[[(2S)-2-methylpyrrolidin-1-yl]methyl]-1H-pyrrolo[3,2-c]pyridin-6-yl)-2-oxo-3H-1,3-benzoxazole-5-carboxamide] | 1090 | 1.46
C[C@H]1CCCN1Cc1cc2cnc(NC(=O)c3ccc(-c4ccn(C)n4)cc3F)cc2[nH]1 [Example 32] | 1400 | 0.455
Cn1ncc2cc(C(=O)Nc3cc4[nH]c(CN5CC6(COC6)C5)cc4cn3)ccc21 [Example 46] | 306 | 1.22
Cc1n[nH]c2ccc(C(=O)Nc3cc4[nH]c(CN5CCC[C@@H]5C)cc4cn3)cc12 [Example 47] | 144 | 0.128
C[C@H]1CCCN1Cc1cc2cnc(NC(=O)c3ccc4[nH]nc(C5CC5)c4c3)cc2[nH]1 [Example 48] | 140 | 0.057
C[C@H]1CCCN1Cc1cc2cnc(NC(=O)c3ccc4c(C(F)F)nn(C)c4c3)cc2[nH]1 [Example 55] | 116 | 0.058
C[C@H]1CCCN1Cc1cc2cnc(NC(=O)c3ccc4c(C5CC5)nn(C)c4c3)cc2[nH]1 [Example 56] | 78 | 0.044
Cc1n[nH]c2cc(C(=O)Nc3cc4[nH]c(CN5CCC[C@@H]5C)cc4cn3)ccc12 [Example 67] | 125 | 0.149
C[C@H]1CCN1Cc1cc2cnc(NC(=O)c3ccc4[nH]nc(C5CC5)c4c3)cc2[nH]1 [Example 73, 3-cyclopropyl-N-(2-[[(2S)-2-methylazetidin-1-yl]methyl]-1H-pyrrolo[3,2-c]pyridin-6-yl)-1H-indazole-5-carboxamide] | 238 | 0.684
CC(=O)Nc1nn(C)c2cc(C(=O)Nc3cc4[nH]c(CN5CCC[C@@H]5C)cc4cn3)ccc12 [Example 87, 3-acetamido-1-methyl-N-(2-[[(2S)-2-methylpyrrolidin-1-yl]methyl]-1H-pyrrolo[3,2-c]pyridin-6-yl)indazole-6-carboxamide] | 330 | –
C[C@H]1CCCN1Cc1cc2cnc(NC(=O)c3ccc4c(c3)n(C)c(=O)n4C)cc2[nH]1 [Example 90] | 126 | –
Cc1nn(C2COC2)c2ccc(C(=O)Nc3cc4[nH]c(CN5CCC[C@@H]5C)cc4cn3)cc12 [Example 100] | 214 | –
Cc1nn(C2CS(=O)(=O)C2)c2ccc(C(=O)Nc3cc4[nH]c(CN5CCC[C@@H]5C)cc4cn3)cc12 [Example 101] | 126 | –
Cc1nn(C(F)F)c2ccc(C(=O)Nc3cc4[nH]c(CN5CCC[C@@H]5C)cc4cn3)cc12 [Example 102] | 276 | –
Cc1n[nH]c2cc(F)c(C(=O)Nc3cnc4cc(CN5CCC[C@@H]5C)[nH]c4c3)cc12 [Example 105, 6-fluoro-3-methyl-N-(2-[[(2S)-2-methylpyrrolidin-1-yl]methyl]-1H-pyrrolo[3,2-b]pyridin-6-yl)-1H-indazole-5-carboxamide] | 270 | –
Cc1n[nH]c2ccc(C(=O)Nc3cc4[nH]c(CN5CCC[C@@H]5C)c(F)c4cn3)cc12 [Example 107, N-(3-fluoro-2-[[(2S)-2-methylpyrrolidin-1-yl]methyl]-1H-pyrrolo[3,2-c]pyridin-6-yl)-3-methyl-1H-indazole-5-carboxamide] | 94 | –
Cc1n[nH]c2ccc(C(=O)Nc3cc4[nH]c(CN5CC6(C5)CC(F)(F)C6)cc4cn3)cc12 [Example 109] | 152 | –
C[C@H]1CCCN1Cc1cc2nnc(NC(=O)c3ccc4c(cnn4C)c3)cc2[nH]1 [compound 19] | 200 | –
COCCCCn1ncc2cc(C(=O)Nc3cc4[nH]c(CN5CCC[C@@H]5C)cc4cn3)ccc21 [compound 28] | 416 | –
Cc1n[nH]c2ccc(C(=O)Nc3cnc4cc(CN5CCC[C@@H]5C)[nH]c4c3)c(F)c12 [compound 106] | 170 | –

Other lines, results leading:

IC50 [1] [nM] | IC50 [2] [µM] | Structure (SMILES)
143 | 0.057 | Cc1noc2cc(C(=O)Nc3cc4[nH]c(CN5CCC[C@@H]5C)cc4cn3)ccc12 [Example 1, (S)-3-methyl-N-(2-((2-methylpyrrolidin-1-yl)methyl)-1H-pyrrolo[3,2-c]pyridin-6-yl)benzo[d]isoxazole-6-carboxamide]
133 | 0.061 | Cc1nn(C)c2ccc(C(=O)Nc3cc4[nH]c(CN5CCC[C@@H]5C)cc4cn3)cc12 [Example 6]
298 | 0.173 | C[C@H]1CCCN1Cc1cc2cnc(NC(=O)c3ccc4cnn(C)c4c3)cc2[nH]1 [Example 7]
250 | 0.301 | C[C@H]1CCCN1Cc1cc2cnc(NC(=O)c3ccc(-c4cnn(C)c4)cc3)cc2[nH]1 [Example 21, 4-(1-methylpyrazol-4-yl)-N-(2-[[(2S)-2-methylpyrrolidin-1-yl]methyl]-1H-pyrrolo[3,2-c]pyridin-6-yl)benzamide]
139 | 0.127 | Cc1ccc2cc(C(=O)Nc3cc4[nH]c(CN5CCC[C@@H]5C)cc4cn3)ccc2n1 [Example 22]
227 | 0.122 | C[C@H]1CCCN1Cc1cc2cnc(NC(=O)c3ccc(-c4cnn(C)c4)cc3F)cc2[nH]1 [Example 34]
161 | 0.109 | C[C@H]1CCCN1Cc1cc2cnc(NC(=O)c3ccc(-c4cn[nH]c4)cc3)cc2[nH]1 [Example 42, N-(2-[[(2S)-2-methylpyrrolidin-1-yl]methyl]-1H-pyrrolo[3,2-c]pyridin-6-yl)-4-(1H-pyrazol-4-yl)benzamide]
158 | 0.1 | C[C@H]1CCCN1Cc1cc2cnc(NC(=O)c3ccc(-c4cnn(C(F)F)c4)cc3)cc2[nH]1 [Example 50]
187 | 0.077 | COCCn1cc(-c2ccc(C(=O)Nc3cc4[nH]c(CN5CCC[C@@H]5C)cc4cn3)cc2)cn1 [Example 51]
154 | 0.184 | C[C@H]1CCCN1Cc1cc2cnc(NC(=O)c3ccc(-c4cnn(CC#N)c4)cc3)cc2[nH]1 [Example 52]
272 | 0.314 | Cc1cc2cc(C(=O)Nc3cc4[nH]c(CN5CCC[C@@H]5C)cc4cn3)ccc2nn1 [Example 57]
330 | 0.182 | C[C@H]1CCCN1Cc1cc2cnc(NC(=O)c3ccc4c(N)nn(C)c4c3)cc2[nH]1 [Example 60]
85 | 0.094 | C[C@H]1CCCN1Cc1cc2cnc(NC(=O)c3ccc4c(CO)nccc4c3)cc2[nH]1 [Example 66]
33 | 0.454 | C[C@H]1CCCN1Cc1cc2cnc(NC(=O)c3ccc4c(N)nccc4c3)cc2[nH]1 [Example 82]
499 | – | Cc1n[nH]cc1-c1ccc(C(=O)Nc2cc3[nH]c(CN4CCC[C@@H]4C)cc3cn2)cc1 [Example 89]
707 | – | C[C@H]1CCCN1Cc1cc2cnc(NC(=O)c3ccc(-n4cnnc4)cc3)cc2[nH]1 [Example 91]
763 | – | CC(c1ccc(C(=O)Nc2cc3[nH]c(CN4CCC[C@@H]4C)cc3cn2)cc1)c1cccnc1 (stereo partly shown) [compound 30]
